Broadly, the inhibition is the relative decrease from the control value, in per cent. A lower inhibition goes with little suppression.

Some results are limits rather than exact numbers.

The text below walks through data of patent US6313310A, “4-and 5-alkynyloxindoles and 4-and 5-alkenyloxindoles” (Hoffmann-La Roche Inc., priority 1999, dated 2001).

The test addresses rat SAPK (isoform β) (Rattus norvegicus, UniProt P49187). In words: SAPK FlashPlate Assay (inhibition of cJun phosphorylation). Format: biochemical. As to conditions: Table I B; for inhibition at 1 µM: Concentration <1.0 μM. As to the method: "IC50 " refers to the concentration of a particular 4- or 5-alkynyloxindole or 4- or 5-alkenyloxindole required to inhibit 50% of cJun phosphorylation, which is a measure of inhibition of SAPK activity. IC50 can be measured, inter alia, using the assay described herein in Example 102.
Human JNK is highly homologous to rat SAPK. To measure the inhibitory activity of test compounds, the compounds were tested in the rat SAPK assay.
For the SAPK assay, purified GST-cJun (a chimeric protein containing cjun, a natural substrate of JNK) was coated on 96 well FlashPlates (New England Nuclear, Boston, Mass.). Purified rat SAPK (isoform β, Kyriakis et al. supra) was preincubated with preparations containing MEKK-1 and MKK4 for 30 minutes at 37° C. in assay buffer containing 25 mM HEPES, pH 7.5, 150 mM NaCl, 20 mM MgCl2, 2 mM DTT, 0.001% Tween 20, 1 μM ATP freshly added. In the preincubation step, MEKK-1 phosphorylates and activates MKK-4, which in turn phosphorylates and activates SAPK. The activated SAPK was then added to the cJun coated FlashPlates along with ^33 P-ATP (0.32 μCi per reaction) and test compounds. The plates were incubated for 30 minutes at 37° C., then washed with PBS, 0.01% Tween 20, and counted in the Topcount scintillation counter (Packard Instrument Co., Downers Grove, Ill.). Dilutions of compounds were tested in duplicate in each assay. The percent inhibition of cJun phosphorylation (a measure of inhibition of SAPK activity) was determined by the following formula: [formula]
where "test compound" refers to the average counts per minute of the test duplicates, "nonspecific" refers to the average counts per minute when no SAPK was added, and "total" refers to the average counts per minute when no compound was added.

Sequence of rat SAPK (isoform β) (P49187 whole entry, canonical isoform): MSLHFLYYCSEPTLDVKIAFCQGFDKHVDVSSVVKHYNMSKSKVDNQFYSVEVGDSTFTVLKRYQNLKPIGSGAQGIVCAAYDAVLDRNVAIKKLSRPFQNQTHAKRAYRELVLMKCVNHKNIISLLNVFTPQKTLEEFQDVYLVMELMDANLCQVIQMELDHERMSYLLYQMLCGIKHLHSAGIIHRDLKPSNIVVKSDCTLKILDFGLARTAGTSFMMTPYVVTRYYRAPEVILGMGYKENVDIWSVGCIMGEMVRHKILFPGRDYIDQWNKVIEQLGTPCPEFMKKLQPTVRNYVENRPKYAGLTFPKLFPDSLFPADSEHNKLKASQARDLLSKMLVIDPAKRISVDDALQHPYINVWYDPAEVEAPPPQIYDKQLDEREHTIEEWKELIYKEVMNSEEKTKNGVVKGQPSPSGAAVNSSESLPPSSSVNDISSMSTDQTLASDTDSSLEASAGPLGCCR

`COc1cc[nH]c1/C=C1\C(=O)Nc2ccc(NC(=O)Cc3cccs3)c(C#Cc3cccnc3)c21` [III]: where the note is “Concentration <0.10 μM”, the inhibition at 0.1 µM was less than 50%.

For `COc1cc[nH]c1/C=C1\C(=O)Nc2cccc(C#CC(O)c3cccn3C)c21` (racemic) [AA, rac-(Z)-1,3-Dihydro-4-[3-hydroxy-3-(1-methyl-pyrrol-2-yl)-1-propynyl]-3-[(3-methoxy-1H-pyrrol-2-yl)methylene]-2H-indol-2-one], the inhibition at 1 µM is more than 50%.

In the case of `COc1cc(C(O)C#Cc2cccc3c2/C(=C/c2[nH]ccc2OC)C(=O)N3)ccc1O` (racemic) [O, rac-(Z)-1,3-Dihydro-4-[3-hydroxy-3-(4-hydroxy-3-methoxyphenyl)-1-propynyl]-3-[(3-methoxy-1H-pyrrol-2-yl)methylene]-2H-indol-2-one], the inhibition at 1 µM was more than 50%.
